Experimental data taken from paper PMC10771415, “Mechanism of anion exchange and small-molecule inhibition of pendrin” (Nature Communications, 2024).

Experiments:
[1] = target: pendrin (ssPendrin, SLC26A4) (Sus scrofa, UniProt A0A480E679, Q101L); test: inhibition of […]-HCO3- uptake in proteoliposomes of purified mutant; type: biochemical
[2] = target: pendrin (ssPendrin, SLC26A4) (Sus scrofa, UniProt A0A480E679, T224V); test: as above; type: biochemical
[3] = target: pendrin (ssPendrin, SLC26A4) (Sus scrofa, UniProt A0A480E679, Q101L/T224A); test: as above; type: biochemical
[4] = target: T1, pendrin (ssPendrin, SLC26A4) (Sus scrofa, UniProt A0A480E679); test: cryo-EM structure at […] Å; inhibition of […]-HCO3- uptake in proteoliposomes of purified protein; type: biochemical
T1 construct: C-terminal TEV site and 8x His-tag
T1 sequence (A0A480E679 1-780): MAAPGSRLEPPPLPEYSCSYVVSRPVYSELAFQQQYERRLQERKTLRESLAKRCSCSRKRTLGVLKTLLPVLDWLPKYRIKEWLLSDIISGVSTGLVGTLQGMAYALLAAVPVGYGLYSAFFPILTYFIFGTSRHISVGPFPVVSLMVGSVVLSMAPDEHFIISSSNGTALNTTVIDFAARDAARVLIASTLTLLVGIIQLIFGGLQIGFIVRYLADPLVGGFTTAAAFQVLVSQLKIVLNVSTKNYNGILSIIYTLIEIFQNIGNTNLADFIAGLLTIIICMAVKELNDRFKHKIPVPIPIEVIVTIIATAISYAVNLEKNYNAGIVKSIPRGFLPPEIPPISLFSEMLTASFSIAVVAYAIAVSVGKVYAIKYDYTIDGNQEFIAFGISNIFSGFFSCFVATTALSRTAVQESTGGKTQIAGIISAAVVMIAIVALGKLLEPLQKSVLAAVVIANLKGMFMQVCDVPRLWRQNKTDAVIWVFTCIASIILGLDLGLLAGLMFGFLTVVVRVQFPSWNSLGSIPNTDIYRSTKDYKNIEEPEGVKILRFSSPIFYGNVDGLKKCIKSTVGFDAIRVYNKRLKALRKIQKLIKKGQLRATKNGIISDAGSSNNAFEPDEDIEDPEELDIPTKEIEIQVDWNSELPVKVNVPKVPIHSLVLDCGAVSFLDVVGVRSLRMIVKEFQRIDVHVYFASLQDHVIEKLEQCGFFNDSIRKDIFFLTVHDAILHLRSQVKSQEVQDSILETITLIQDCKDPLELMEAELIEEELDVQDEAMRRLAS

[5] = target: pendrin from Sus scrofa (ssPendrin) (Sus scrofa); test: cryo-EM structure; purified ssPendrin in 20 mM HEPES pH 7.5, 2 mM BME, 0.02% GDN with 150 mM NaCl, NaI, NaHCO3 or Na gluconate, or 150 mM NaCl and 10 mM NFA; refined with C2 symmetry

Sequence of pendrin (ssPendrin, SLC26A4) (Sus scrofa, UniProt A0A480E679, Q101L) (A0A480E679 entry or part of it Q101L): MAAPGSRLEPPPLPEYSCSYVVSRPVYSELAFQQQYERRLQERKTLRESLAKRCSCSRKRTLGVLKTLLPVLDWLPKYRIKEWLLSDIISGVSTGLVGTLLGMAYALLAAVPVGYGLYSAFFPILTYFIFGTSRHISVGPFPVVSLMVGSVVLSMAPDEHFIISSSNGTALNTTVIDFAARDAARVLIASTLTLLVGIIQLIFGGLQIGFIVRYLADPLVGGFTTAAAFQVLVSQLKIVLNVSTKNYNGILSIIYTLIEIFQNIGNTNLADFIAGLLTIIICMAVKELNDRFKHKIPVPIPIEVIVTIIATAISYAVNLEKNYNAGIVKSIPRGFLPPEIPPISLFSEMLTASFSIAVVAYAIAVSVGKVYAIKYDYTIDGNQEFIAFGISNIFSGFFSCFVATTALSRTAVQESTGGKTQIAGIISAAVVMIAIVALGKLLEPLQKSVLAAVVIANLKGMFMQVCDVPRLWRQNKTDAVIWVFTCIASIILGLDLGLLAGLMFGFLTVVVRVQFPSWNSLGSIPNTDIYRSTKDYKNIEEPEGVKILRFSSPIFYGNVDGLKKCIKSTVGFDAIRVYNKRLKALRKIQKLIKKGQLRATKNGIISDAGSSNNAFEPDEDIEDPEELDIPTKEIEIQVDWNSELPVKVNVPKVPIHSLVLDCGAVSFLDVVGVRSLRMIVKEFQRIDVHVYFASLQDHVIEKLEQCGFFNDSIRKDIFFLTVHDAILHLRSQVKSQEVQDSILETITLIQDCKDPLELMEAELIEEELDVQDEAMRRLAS
Sequence of pendrin (ssPendrin, SLC26A4) (Sus scrofa, UniProt A0A480E679, Q101L/T224A) (A0A480E679 entry or part of it Q101L/T224A): as the sequence (A0A480E679 entry or part of it Q101L) above, with T224A counted along it
Sequence of pendrin (ssPendrin, SLC26A4) (Sus scrofa, UniProt A0A480E679, T224V) (A0A480E679 entry or part of it T224V): as the sequence (A0A480E679 entry or part of it Q101L) above, with L101Q, T224V counted along it

| Compound | IC50 [1] | IC50 [2] | IC50 [3] | IC50 [4] | stoichiometry N [5] |
| --- | --- | --- | --- | --- | --- |
| O=C(O)c1cccnc1Nc1cccc(C(F)(F)F)c1 [NFA, niflumic acid] | 31.2 µM | 9.5 µM | 16.3 µM | 15.5 ± 1.5 µM |  |
| pendrin from Sus scrofa (ssPendrin) (natural protein) |  |  |  |  | 2 |
